Where only a bound is given, the exact number is not on record here.

Assay [1] has as its system HepG2 cells. As to the kind of experiment: Cell growth inhibition measurement (CCK-8), HepG2. Particulars: Homo sapiens, HepG2, 72 h, highest EC50 measured during one or multiple operations, read-out: Inhibition activity against cancer cells, HepG2 (EC50). Format: cell-based. The source says:
(§1) A HepG2 cell strain and an HCT-116 cell strain were purchased from Shanghai Institutes for Biological Sciences; a DMEM high-sugar culture medium and an MEM culture medium were purchased from Hyclone; fetal calf serum was purchased from Gibco; trypsin was purchased from Invitrogen Shanghai; a CCK-8 kit was purchased from Beyotime Institute of Biotechnology; and, the remaining cell culture mediums and other consumables were purchased from Corning China.
(§2) HepG2 cells and HCT-116 cells in the logarithmic growth phase were digested by trypsin. After the counting of uniform cell suspension, the cell density was adjusted as 1500 cells/well by a culture medium containing 10% serum. The cells were re-inoculated to a 96-well cell culture plate, and cultured to a volume of 200 μL at 37° C. in an incubator containing 5% CO2. The cells could be tested after being cultured for 24 h.
(§3) The cells cultured for 24 h were taken out from the incubator. The culture liquid in the well plate was sucked out, and 200 μL of compound solution prepared in the culture medium containing 10% fetal calf serum was added in each well. Five parallel mediums were provided for each concentration, and a DMSO culture medium was used as negative control. The culture mediums were cultured for 72 h at 37° C. in an incubator containing 5% CO2, and CCK-8 detection was performed.
(§4) A serum-free culture medium and CCK-8 solution were prepared, and CCK-8 working solution was prepared at a ratio of 10:1 (this process should be performed in dark place).
(§5) The cells cultured for 72 h were taken out from the incubator. The culture liquid in the well plate was sucked out, and 120 μL of the CCK-8 working solution was added in each well. A well plate without cells was also added with 120 μL of the CCK-8 working solution to serve as blank control. The well plates were cultured for 1 h at 37° C. in an incubator containing 5% CO2 (this process should be performed in dark place).
(§6) The well plates were taken out from the incubator, 100 μL of solution in each well was sucked out and added in a new 96-well plate, and the absorbance was measured at 450 nm (this process should be performed in dark place).
(§7) where Tx is the absorbance of the CCK-8 after the compound acts for 72 h;
(§8) C is the absorbance of the CCK-8 after the negative control wells are cultured for 72 h; and
(§9) B is the absorbance of the CCK-8 in the blank control wells.
(§10) The test results of the compounds prepared according to the embodiments during the measurement are shown in Table 3, wherein the measured highest EC50 of the compounds during one operation or multiple operations is classified according to the following description: […]

For assay [2], the system named is HCT-116 cells. The experiment in a line: Cell growth inhibition measurement (CCK-8), HCT-116. Format: cell-based. Particulars: Homo sapiens, HCT-116, 72 h, highest EC50 measured during one or multiple operations, read-out: Inhibition activity against cancer cells, HCT-116 (EC50).
Excerpt: as §1, §2, §3, §4, §5, §6, §7, §8, §9, §10

Assay [3] has as its target HDAC 1 (Homo sapiens, UniProt Q13547). As to the kind of experiment: Enzyme activity detection of histone deacetylase 1 (fluorogenic substrate deacetylation). Format: biochemical. Particulars: 0.28 ng/μL HDAC 1, 10 μM substrate; IC50 class. From the text:
During the deacetylation detection of a substrate, the HDAC inhibition activity of the compound of the present invention was detected.
C: Enzyme Activity Detection of Histone Deacetylase 1
Acetyl on the substrate was removed by the HDAC 1, so that the substrate was activated, and the developing liquid added subsequently could act on the substrate to release the fluorescent group. The size of the fluorescence signal reflected the activity of the HDAC 1. The IC50 detection method for this enzyme was disclosed in Chuping Xu, Elisabetta Soragni Improved Histone Deacetylase Inhibitors as Therapeutics for the Neurdegenerative Disease Friedreich's Ataxia: A New Synthetic Route. The total reaction system (100 μL/well) contained 0.28 ng/μL of HDAC 1, 10 μM of the substrate and the compound in different concentrations. The fluorescence signal was detected online at Ex/Em=360/460. The inhibition effect of the compound was determined from the obtained data, a concentration response curve was obtained by using the inhibition effect and the concentration of the compound, and the value of IC50 was fitted according to a four-parameter model.
The activities of the compounds prepared in the embodiments against the histone deacetylases 1, 3 and 6 (i.e., HDAC 1, HDAC 3 and HDAC 6) were detected by the above methods, and the test results were shown in Table 2, where the measurements of IC50 of the compounds were classified according to the following description: […]

HDAC 1, sequence (Q13547 whole entry, species assumed): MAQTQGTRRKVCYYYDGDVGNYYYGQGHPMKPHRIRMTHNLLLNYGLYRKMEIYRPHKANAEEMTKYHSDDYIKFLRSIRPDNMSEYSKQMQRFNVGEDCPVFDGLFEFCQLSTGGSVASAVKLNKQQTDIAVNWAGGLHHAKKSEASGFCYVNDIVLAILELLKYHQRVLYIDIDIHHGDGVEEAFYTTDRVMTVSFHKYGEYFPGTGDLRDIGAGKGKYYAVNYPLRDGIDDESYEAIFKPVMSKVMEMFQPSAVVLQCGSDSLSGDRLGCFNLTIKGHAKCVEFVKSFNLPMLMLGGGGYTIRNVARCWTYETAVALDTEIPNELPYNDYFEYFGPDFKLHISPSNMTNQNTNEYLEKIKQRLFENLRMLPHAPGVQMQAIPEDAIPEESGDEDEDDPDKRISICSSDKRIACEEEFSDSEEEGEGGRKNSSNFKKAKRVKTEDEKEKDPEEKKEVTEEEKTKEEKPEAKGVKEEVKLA

For orientation: EC50 means the concentration needed to bring the measured effect to its halfway point. With `CN1CCN(c2ccc(-c3ccc(S(=O)(=O)N4CC=C(C(=O)NO)CC4)cc3)cn2)CC1` [Compound 5], the concentration for a half-maximal effect (EC50) in assay [1] was under 100 nM.

Broadly, the IC50 is the midpoint of a concentration-inhibition curve. Read a high IC50 as weaker potency in that assay. As for `CN(C)Cc1ccc(-c2ccc(S(=O)(=O)N3CC=C(C(=O)NO)CC3)cc2)cc1` [Compound 8, N-hydroxyl-1((4′-((dimethylamino)methyl)-[1, 1′-biphenyl]-4-yl)sulfonyl)-1,2,3,6-tetrahydropyridine-4-formamide], the EC50 in assay [2] and in assay [1] was under 100 nM in each case. The molecule further registered an IC50 in assay [3] of under 100 nM.

Regarding `O=C(NO)C1=CCN(S(=O)(=O)c2ccc(-c3ccc(N4CCNCC4)cc3)cc2)CC1` [Compound 10, N-hydroxyl-1-((4′-(piperazine-1-yl)-[1,1′-biphenyl]-4-yl)sulfonyl)-1,2,3,6-tetrahydropyridine-4-formamide], in assay [1], the EC50 was under 100 nM.

As to `CCN(CC)Cc1ccc(-c2ccc(S(=O)(=O)N3CC=C(C(=O)NO)CC3)cc2)cc1` [Compound 18, N-hydroxyl-1-((4′-((diethylamino)methyl)-[1,1′-biphenyl]-4-yl)sulfonyl)-1,2,3,6-tetrahydropyridine-4-formamide], the EC50 in assay [2] and in assay [1] was under 100 nM each time. The molecule also yielded an IC50 in assay [3] of under 100 nM.

Take `CN(C)CCc1ccc(-c2ccc(S(=O)(=O)N3CC=C(C(=O)NO)CC3)cc2)cc1` [Compound 12, N-hydroxyl-1-((4′-(2-(dimethylamino)ethyl)-[1, 1′-biphenyl]-4-yl)sulfonyl)-1,2,3,6-tetrahydropyridine-4-formamide]: the EC50 in assay [2] and in assay [1] was under 100 nM throughout. In assay [3], the IC50 was under 100 nM.

Regarding `CN1CCN(c2ccc(-c3ccc(S(=O)(=O)N4CC=C(C(=O)NO)CC4)cc3)cc2F)CC1` [Compound 3, N-hydroxyl-1-((3′-fluoro-4′-(4-methylpiperazine-1-yl)-[1,1′-biphenyl]-4-yl)sulfonyl)-1,2,3,6-tetrahydropyridine-4-formamide], in assay [1], the EC50 is under 100 nM.

For the molecule `O=C(NO)C1=CCN(S(=O)(=O)c2ccc(-c3ccc(N4CCN(C5CC5)CC4)cc3)cc2)CC1` [Compound 11, N-hydroxyl-1-((4′-(4-cyclopropylpiperazine-1-yl)-[1,1′-biphenyl]-4-yl)sulfonyl)-1,2,3,6-tetrahydropyridine-4-formamide], in assay [1], the EC50 is under 100 nM.

For the molecule `COCCN1CCN(c2ccc(-c3ccc(S(=O)(=O)N4CC=C(C(=O)NO)CC4)cc3)cn2)CC1` [Compound 17, N-hydroxyl-1-((4-(6-(4-(2-methoxyethyl)piperazine-1-yl)pyridine-3-yl)phenyl)sulfonyl)-1,2,3,6-tetrahydropyridine-4-formamide], in assay [1], the EC50 is over 100 nM.

Take `CN1CCN(Cc2ccc(-c3ccc(S(=O)(=O)N4CC=C(C(=O)NO)CC4)cc3)cc2)CC1` [Compound 20, N-hydroxyl-1-((4′-((4-methylpiperazine-1-yl)methyl)-[1,1′-biphenyl]-4-yl)sulfonyl)-1,2,3,6-tetrahydropyridazole-4-formamide]: the EC50 in assay [2] and in assay [1] was under 100 nM in each case.

Turning to `CCN1CCN(c2ccc(-c3ccc(S(=O)(=O)N4CC=C(C(=O)NO)CC4)cc3)cc2)CC1` [Compound 6], the EC50 in assay [2] and in assay [1] was under 100 nM throughout. Moreover, the IC50 in assay [3] is under 100 nM.

Regarding `CN(C)CCNC(=O)c1ccc(-c2ccc(S(=O)(=O)N3CC=C(C(=O)NO)CC3)cc2)cc1` [Compound 22, N-hydroxyl-1-((4′-((2-(dimethylamino)ethyl)aminoformyl)-[1,1′-biphenyl]-4-yl)sulfonyl)-1,2,3,6-tetrahydropyridine-4-formamide], the EC50 in assay [1] was over 100 nM.

For the molecule `O=C(NO)C1=CCN(S(=O)(=O)c2ccc(-c3ccc(CN4CCOCC4)cc3)cc2)CC1` [Compound 21, N-hydroxyl-1-((4′-(morpholinylmethyl)-[1,1′-biphenyl]-4-yl)sulfonyl)-1,2,3,6-tetrahydropyridine-4-formamide], the EC50 in assay [2] and in assay [1] was under 100 nM in each case.

Consider `CN1CCCN(c2ccc(-c3ccc(S(=O)(=O)N4CC=C(C(=O)NO)CC4)cc3)cn2)CC1` [Compound 24, N-hydroxyl-1-((4-(6-(4-methyl-1,4-diazaheptane-1-yl)pyridine-3-yl)phenyl)sulfonyl)-1,2,3,6-tetrahydropyridine-4-formamide], for which the EC50 in assay [1] is under 100 nM.

With `COCCN1CCN(c2ccc(-c3ccc(S(=O)(=O)N4CC=C(C(=O)NO)CC4)cc3)cc2)CC1` [Compound 4, N-hydroxyl-1-((4′-(4-(2-methoxyethyl)piperazine-1-yl)-[1,1′-biphenyl]-4-yl)sulfonyl)-1,2,3,6-tetrahydropyridine-4-formamide], the EC50 in assay [1] is under 100 nM.

`CN1CCC(n2cc(-c3ccc(S(=O)(=O)N4CC=C(C(=O)NO)CC4)cc3)cn2)CC1` [Compound 14, N-hydroxyl-1-((4-(1-(1-methylpiperidine-4-yl)-1H-pyrazol-4-yl)phenyl)sulfonyl)-1,2,3,6-tetrahydropyridine-4-formamide]: the EC50 in assay [1] is over 100 nM.

With `CN1CCN(c2ccc(-c3ccc(S(=O)(=O)N4CC=C(C(=O)NO)CC4)cn3)cc2)CC1` [Compound 13, N-hydroxyl-1-((6-(4-(4-methylpiperazine-1-yl)phenyl)pyridine-3-yl)sulfonyl)-1,2,3,6-tetrahydropyridine-4-formamide], the EC50 in assay [2] and in assay [1] was under 100 nM in each case. This molecule gave an IC50 in assay [3] of under 100 nM.

On to `CC1CN(c2ccc(-c3ccc(S(=O)(=O)N4CC=C(C(=O)NO)CC4)cc3)cc2)CCN1C` (stereo not shown) [Compound 9, N-hydroxyl-1-((4′-(3,4′-dimethylpiperazine-1-yl)-[1,1′-biphenyl]-4-yl)sulfonyl)-1,2,3,6-tetrahydropyridine-4-formamide], for which, in assay [1], the concentration giving a half-maximal response (EC50) is under 100 nM.

For the molecule `CN1CCN(c2ccc(-c3ccc(S(=O)(=O)N4CC=C(C(=O)NO)CC4)cc3F)cc2)CC1` [Compound 7, N-hydroxyl-1-((2-fluoro-4′-(4-methylpiperazine-1-yl)-[1,1′-biphenyl]-4-yl)sulfonyl)-1,2,3,6-tetrahydropyridine-4-formamide], the EC50 in assay [2] and in assay [1] was under 100 nM throughout.

Turning to `CN1CCN(c2ccc(-c3ccc(S(=O)(=O)N4C=CC(C(=O)NO)CC4)cc3)cc2)CC1` (stereo not shown) [Compound 15, N-hydroxyl-1-((4′-(4-methylpiperazine-1-yl)-[1, 1′-biphenyl]-4-yl)sulfonyl)-1,2,3,4-tetrahydropyridine-4-formamide], the EC50 in assay [2] and in assay [1] was under 100 nM throughout. For the same molecule, the IC50 in assay [3] was under 100 nM.

The values are drawn from patent publication US11149008B2, “Sulfamide derivatives and preparation method and use thereof” (HitGen Ltd., priority 2015, dated 2021).
